In one assay the target is T1, LPL:sGPIHBP1 complex (Homo sapiens, UniProt P06858).
T1 sequence (P06858 28-475): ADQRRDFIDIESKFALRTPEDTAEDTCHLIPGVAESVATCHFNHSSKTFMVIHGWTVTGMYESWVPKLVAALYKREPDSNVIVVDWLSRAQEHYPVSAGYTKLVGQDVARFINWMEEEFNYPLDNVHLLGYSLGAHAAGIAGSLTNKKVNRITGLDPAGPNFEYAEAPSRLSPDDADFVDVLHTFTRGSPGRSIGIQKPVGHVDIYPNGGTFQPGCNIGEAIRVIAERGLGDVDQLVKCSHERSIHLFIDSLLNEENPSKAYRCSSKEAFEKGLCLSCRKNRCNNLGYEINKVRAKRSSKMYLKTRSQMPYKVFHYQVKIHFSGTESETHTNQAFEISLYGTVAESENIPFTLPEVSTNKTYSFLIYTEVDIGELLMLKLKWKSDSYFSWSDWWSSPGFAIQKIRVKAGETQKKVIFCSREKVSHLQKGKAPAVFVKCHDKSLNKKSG
T1 sequence (Q8IV16 21-151 partner limits assumed): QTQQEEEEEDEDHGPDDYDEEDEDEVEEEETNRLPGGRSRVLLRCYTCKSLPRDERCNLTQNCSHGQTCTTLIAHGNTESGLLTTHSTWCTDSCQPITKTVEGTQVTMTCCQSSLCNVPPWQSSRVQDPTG
Nature of the assay: RB assay (LPL:sGPIHBP1 pre-incubated with ANGPTL4, RB substrate). The assay is classed as biochemical. The note with it: read-out: RB qAC50. In short, it runs like this:
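LPL:sGPIHBP1 (5 nM diluted) was pre-incubated 60 min at RT with compound and ANGPTL4 (20 nM diluted), which cuts LPL activity by 80%. RB substrate (40 μM diluted) was then added and reacted 30 min at RT. The reaction was stopped with SDS, and fluorescence (ex 540/em 590 nm) was read 2 h later to detect LPL activation or ANGPTL4 inhibition.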
As for `O=C(O)Cc1cc(F)ccc1NC(=O)c1ccc(N2CCC3(CC3)C2)c(NC(=O)c2nn(CC(F)(F)F)c3ccccc23)c1` [Example 53], the EC50 was 6.8 µM.

On to `O=C(O)Cc1cc(F)ccc1NC(=O)c1ccc(N2C3CCC2CC3)c(NC(=O)c2nn(CC(F)(F)F)c3ccccc23)c1` [Example 54], for which the EC50 stood at 6.9 µM.

As to `O=C(O)Cc1cc(F)ccc1NC(=O)c1ccc(N2CCOCC2)c(NC(=O)c2nn(CC(F)(F)F)c3ccccc23)c1` [Example 56], the EC50 was 15 µM.

Take `CN1CCN(c2ccc(C(=O)Nc3ccc(F)cc3CC(=O)O)cc2NC(=O)c2nn(CC(F)(F)F)c3ccccc23)CC1` [Example 57]: the EC50 was over 7.1 µM.

As for `O=C(O)Cc1cc(F)ccc1NC(=O)c1ccc(N2CCCCC2=O)c(NC(=O)c2nn(CC(F)(F)F)c3ccccc23)c1` [Example 59], the EC50 is over 25 µM.

In the case of `O=C(O)Cc1cc(F)ccc1NC(=O)c1ccc(N2CCOC2=O)c(NC(=O)c2nn(CC(F)(F)F)c3ccccc23)c1` [Example 60], the EC50 is over 25 µM.

Take `CC1(C)CCN(c2ccc(C(=O)Nc3ccc(F)cc3CC(=O)O)cc2NC(=O)c2nn(CC(F)(F)F)c3ccccc23)CC1` [Example 61]: the EC50 is 3.6 µM.

Take `O=C(O)Cc1cc(F)ccc1NC(=O)c1ccc(N2CCCC(F)(F)C2)c(NC(=O)c2nn(CC(F)(F)F)c3ccccc23)c1` [Example 62]: the EC50 was over 7.1 µM.

Turning to `COC1CCN(c2ccc(C(=O)Nc3ccc(F)cc3CC(=O)O)cc2NC(=O)c2nn(CC(F)(F)F)c3ccccc23)CC1` [Example 65], the EC50 is over 7.1 µM.

As for `O=C(O)Cc1cc(F)ccc1NC(=O)c1ccc(N2CCS(=O)(=O)CC2)c(NC(=O)c2nn(CC(F)(F)F)c3ccccc23)c1` [Example 66], the EC50 was over 25 µM.

Regarding `CC1CCCC(C)N1c1ccc(C(=O)Nc2ccc(F)cc2CC(=O)O)cc1NC(=O)c1nn(CC(F)(F)F)c2ccccc12` (stereo not shown) [Example 68], the EC50 is over 7.1 µM.

For the compound `NC(=O)C1CCCCN1c1ccc(C(=O)Nc2ccc(F)cc2CC(=O)O)cc1NC(=O)c1nn(CC(F)(F)F)c2ccccc12` (stereo not shown) [Example 71], the EC50 is over 7.1 µM.

Consider `CC1CC(C)CN(c2ccc(C(=O)Nc3ccc(F)cc3CC(=O)O)cc2NC(=O)c2nn(CC(F)(F)F)c3ccccc23)C1` (stereo not shown) [Example 74], for which the EC50 was over 7.1 µM.

As to `O=C(O)Cc1cc(F)ccc1NC(=O)c1ccc(N2CCC(O)CC2)c(NC(=O)c2nn(CC(F)(F)F)c3ccccc23)c1` [Example 75], the EC50 was over 25 µM.

The next assay deals with T2, LPL (native bovine milk protein) inactivated by ANGPTL4 (Bos taurus, UniProt P11151).
T2 construct: from tissue; host or cells: bovine milk (LPL); E. coli (GST-ANGPTL4)
T2 sequence (P11151 29-478): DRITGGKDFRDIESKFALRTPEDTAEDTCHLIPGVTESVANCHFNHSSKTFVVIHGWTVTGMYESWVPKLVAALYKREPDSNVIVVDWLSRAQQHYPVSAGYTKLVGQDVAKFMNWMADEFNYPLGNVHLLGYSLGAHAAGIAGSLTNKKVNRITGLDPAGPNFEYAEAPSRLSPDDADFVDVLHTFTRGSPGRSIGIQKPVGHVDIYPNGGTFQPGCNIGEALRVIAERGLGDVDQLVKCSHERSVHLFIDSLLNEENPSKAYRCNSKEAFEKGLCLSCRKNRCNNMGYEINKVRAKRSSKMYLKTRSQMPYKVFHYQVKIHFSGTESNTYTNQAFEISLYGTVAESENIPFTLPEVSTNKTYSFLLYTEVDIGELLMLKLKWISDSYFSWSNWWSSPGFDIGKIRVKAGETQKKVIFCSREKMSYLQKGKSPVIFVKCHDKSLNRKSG
Briefly: LPL ANGPTL4 protection assay (LPL fluorescence assay, resorufin butyrate substrate). The note with it: LPL activation activity, LPL 2.5 nM, ANGPTL4 20 nM. The assay is classed as biochemical. As to the method: LPL is inactivated by angiopoietin-like 4 (ANGPTL4). Compounds of the present disclosure were for activity using the following protection assay. Briefly, the assay was performed in a black opaque 96-well microtiter plate with final volume of 100 μL using a buffer consisting of 50 mM HEPES (pH 7.2), 150 mM NaCl and 0.03% Triton X-100. Compounds were prepared as 10 mM stocks in DMSO, with subsequent serial dilutions performed in DMSO. Two microliters of test compounds were added to the microtiter plate, followed by 49-PL of LPL (native bovine milk protein affinity purified using heparin-affinity chromatography) in assay buffer. The plate contents were mixed using an orbital shaker and allowed to incubate for 5 minutes at room temperature. The enzymatic assay was initiated by the addition of a mixture of 49 μL of 50 μM resorufin butyrate (Santa Cruz #sc-208302; prepared from a 10 mM DMSO stock) and ANGPTL4 (N-terminal GST construct consisting of residues 26-164 expressed in E. coli) in assay buffer. The final concentrations of LPL and ANGPTL4 were 2.5 nM and 20 nM, respectively. The assay was allowed to proceed at 30° C. for 25 minutes with kinetic monitoring (Ex560/Em585) followed by an endpoint reading which was used for analysis.
Data was analyzed in Graphpad Prism (version 6.0, GraphPad Software, Inc., San Diego, CA) using a variable slope four parameter fit of the equation:
Y=Bottom+(Top-Bottom)/(1+10^((Log EC50−X)*HillSlope)),
where X is the concentration of test compound, Y corresponds to the amount of product expressed in relative fluorescence units, and Top and Bottom refer to the plateaus of the curve. Percent activation (protection) of test compound was calculated relative to zero effect wells (ZEW; LPL, ANGPTL4 and substrate) and maximum effect wells (MEW; LPL plus substrate): ((test well−ZEW)/(MEW−ZEW))*100.
On to `O=C(O)Cc1cc(F)ccc1NC(=O)c1ccc(N2CCCCC2)c(NC(=O)c2nn(Cc3ccccc3)c3ccccc23)c1` [Compound 159, 2-(2-(3-(1-benzyl-1H-indazole-3-carboxamido)-4-(piperidin-1-yl)benzamido)-5-fluorophenyl)acetic acid], for which the EC50 came to 0.85 µM.

Compound `CCn1nc(C(=O)Nc2cc(C(=O)Nc3ccc(F)cc3CC(=O)O)ccc2N2CCCCC2)c2ccccc21` [Compound 160, 2-(2-(3-(1-ethyl-1H-indazole-3-carboxamido)-4-(piperidin-1-yl)benzamido)-5-fluorophenyl)acetic acid] returned an EC50 of 1.66 µM.

As for `O=C(O)Cc1ccccc1NC(=O)c1ccc(N2CCCCC2)c(NC(=O)c2cc3n(n2)CCCC3)c1` [Compound 161, 2-(2-(4-(piperidin-1-yl)-3-(4,5,6,7-tetrahydropyrazolo[1,5-a]pyridine-2-carboxamido)benzamido)phenyl)acetic acid], the EC50 stood at 3.2 µM.

Take `CC(C)n1nc(C(=O)Nc2cc(C(=O)Nc3ccc(F)cc3CC(=O)O)ccc2N2CCCCC2)c2ccccc21` [Compound 162, 2-(5-fluoro-2-(3-(1-isopropyl-1H-indazole-3-carboxamido)-4-(piperidin-1-yl)benzamido)phenyl)acetic acid]: the EC50 was 3.25 µM.

The compound `Cn1nc(C(=O)Nc2cc(C(=O)Nc3ccccc3CC(=O)O)ccc2N2CCCCC2)cc1-c1ccccc1` [Compound 163, 2-(2-(3-(1-methyl-5-phenyl-1H-pyrazole-3-carboxamido)-4-(piperidin-1-yl)benzamido)phenyl)acetic acid] had an EC50 of 4.13 µM.

Consider `O=C(Nc1ccc(-c2nnn[nH]2)cc1)c1ccc(N2CCCCC2)c(NC(=O)c2nn(CC(F)(F)F)c3ccccc23)c1` [Compound 164, N-(5-((4-(1H-tetrazol-5-yl)phenyl)carbamoyl)-2-(piperidin-1-yl)phenyl)-1-(2,2,2-trifluoroethyl)-1H-indazole-3-carboxamide], for which the EC50 came out at 5.16 µM.

Compound `Cn1nc(C(=O)Nc2cc(C(=O)Nc3ccc(-c4nnn[nH]4)cc3)ccc2N2CCCCC2)c2ccc(F)cc21` [Compound 165, N-(5-((4-(1H-tetrazol-5-yl)phenyl)carbamoyl)-2-(piperidin-1-yl)phenyl)-6-fluoro-1-methyl-1H-indazole-3-carboxamide] registered an EC50 of 7.99 µM.

Regarding `Cn1nc(C(=O)Nc2cc(C(=O)Nc3cc(-c4nnn[nH]4)ccc3F)ccc2N2CCCCC2)c2ccccc21` [Compound 166, N-(5-((2-fluoro-5-(1H-tetrazol-5-yl)phenyl)carbamoyl)-2-(piperidin-1-yl)phenyl)-1-methyl-1H-indazole-3-carboxamide], the EC50 came out at 8.1 µM.

Compound `Cc1ccc(NC(=O)c2cc(-n3cc4ccc(-c5nnn[nH]5)cc4n3)ccc2N2CCCCC2)cc1` [Compound 167, 5-(6-(1H-tetrazol-5-yl)-2H-indazol-2-yl)-2-(piperidin-1-yl)-N-(p-tolyl)benzamide] showed an EC50 of 9.41 µM.

Turning to `Cc1ccc(NC(=O)c2cc(NCc3ccc(-c4nsc(=O)[nH]4)cc3)ccc2N2CCCCC2)cc1` [Compound 168, N-(4-methylphenyl)-5-({[4-(5-oxo-4,5-dihydro-1,2,4-thiadiazol-3-yl)phenyl]methyl}amino)-2-(piperidin-1-yl)benzamide], the EC50 came out at 14.9 µM.

`Cc1ccc(NC(=O)c2cc(NCc3cc(-c4nnn[nH]4)ccc3F)ccc2N2CCCCC2)cc1` [Compound 169, 5-((2-fluoro-5-(1H-tetrazol-5-yl)benzyl)amino)-2-(piperidin-1-yl)-N-(p-tolyl)benzamide] yielded an EC50 of 6.38 µM.

(Values after patent US20250092014A1, “COMPOUNDS AND METHODS OF ACTIVATING LIPOPROTEIN LIPASE” (Metrea Biosciences, Inc., priority 2021, published 2025).)
